Reference: ChEMBL document CHEMBL4814069, “Nucleotide analogues containing a pyrrolidine, piperidine or piperazine ring: Synthesis and evaluation of inhibition of plasmodial and human 6-oxopurine phosphoribosyltransferases and in vitro antimalarial activity” (Eur J Med Chem, 2021)

Columns and labels:
[1] = Inhibition of Plasmodium vivax HGPRT using PRib-PP as substrate by Hanes-plot based method
[2] = Selectivity index, ratio of Ki for human HGPRT to Ki for Plasmodium falciparum HGXPRT; type: toxicity
[3] = Selectivity index, ratio of Ki for human HGPRT to Ki for Plasmodium vivax HGPRT; type: toxicity
[4] = Inhibition of Plasmodium falciparum HGXPRT using PRib-PP as substrate by Hanes-plot based method
[5] = target: T1, Hypoxanthine-guanine phosphoribosyltransferase (Homo sapiens, UniProt P00492); assay: Inhibition of human HGPRT using PRib-PP as substrate by Hanes-plot based method
T1 sequence (P00492 whole entry): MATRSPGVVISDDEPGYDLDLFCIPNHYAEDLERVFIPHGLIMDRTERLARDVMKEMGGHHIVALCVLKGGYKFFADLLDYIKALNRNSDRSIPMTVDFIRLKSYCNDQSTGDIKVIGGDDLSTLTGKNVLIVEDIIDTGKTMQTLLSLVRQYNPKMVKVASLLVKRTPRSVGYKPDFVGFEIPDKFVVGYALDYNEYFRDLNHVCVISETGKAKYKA

HepG2 [6] = assay: Cytotoxicity against human HepG2 cells assessed as reduction in cell viability at 10 uM incubated for 72 hrs by Celltiter-Glo assay; type: cell-based; conditions: hepg2, 72 h
Plasmodium falciparum [7] = assay: Antimalarial activity against asexual stage of chloroquine-sensitive Plasmodium falciparum D6 infected in human erythrocytes assessed as inhibition of parasite growth measured after 96 hrs by [3H]-hypoxanthine incorporation assay; type: functional, organism-based
[8] = Selectivity for antimalarial activity against Plasmodium falciparum over cytotoxicity against human NHDF cells; type: toxicity, cell-based; conditions: read-out: Selectivity Index
HepG2 [9] = assay: Cytotoxicity against human HepG2 cells assessed as reduction in cell viability at 50 uM incubated for 72 hrs by Celltiter-Glo assay; type: cell-based; conditions: hepg2, 72 h
[10] = Cytotoxicity against human HepG2 cells assessed as cell viability at 100 uM incubated for 72 hrs by Celltiter-Glo assay; type: cell-based; conditions: read-out: Activity
HeLa S3 = assay: Cytotoxicity against human HeLa S3 cells assessed as reduction in cell viability at 10 uM incubated for 72 hrs by Celltiter-Glo assay; type: cell-based; conditions: hela s3, 72 h
NHDF [11] = assay: Cytotoxicity against human NHDF cells assessed as reduction in cell viability at 10 uM incubated for 72 hrs by Celltiter-Glo assay; type: cell-based
[12] = Cytotoxicity against human NHDF cells assessed as cell viability at 100 uM incubated for 72 hrs by Celltiter-Glo assay; type: cell-based; conditions: read-out: Activity
[13] = Selectivity for antimalarial activity against Plasmodium falciparum over cytotoxicity against human HepG2 cells; type: toxicity, cell-based; conditions: read-out: Selectivity Index
HL-60 = assay: Cytotoxicity against human HL60 cells assessed as reduction in cell viability at 10 uM incubated for 72 hrs by Celltiter-Glo assay; type: cell-based; conditions: hl-60, 72 h
NHDF [14] = assay: Cytotoxicity against human NHDF cells assessed as reduction in cell viability at 50 uM incubated for 72 hrs by Celltiter-Glo assay; type: cell-based
CCRF-CEM = assay: Cytotoxicity against human CCRF-CEM cells assessed as reduction in cell viability at 10 uM incubated for 72 hrs by Celltiter-Glo assay; type: cell-based
HepG2 [15] = assay: Cytotoxicity against human HepG2 cells assessed as reduction in cell viability incubated for 72 hrs by Celltiter-Glo assay; type: cell-based; conditions: HepG2, 72 h
NHDF [16] = assay: Cytotoxicity against human NHDF cells assessed as reduction in cell viability incubated for 72 hrs by Celltiter-Glo assay; type: cell-based
Plasmodium falciparum [17] = assay: Antimalarial activity against asexual stage of chloroquine-resistant Plasmodium falciparum W2 infected in human erythrocytes assessed as parasite growth inhibition measured after 96 hrs by [3H]-hypoxanthine incorporation assay; type: functional, organism-based

| SMILES | Ki [1] [µM] | Ratio Ki [2] | Ratio Ki [3] | Ki [4] [µM] | Ki [5] [µM] | Activity (HepG2 [6]) | IC50 (Plasmodium falciparum [7]) [µM] | selectivity ratio [8] | Activity (HepG2 [9]) | viability at 72 h, 100 µM [10] [%] | Activity (HeLa S3) | Activity (NHDF [11]) | viability at 72 h, 100 µM [12] [%] | selectivity ratio [13] | Activity (HL-60) | Activity (NHDF [14]) | Activity (CCRF-CEM) | IC50 (HepG2 [15]) [µM] | IC50 (NHDF [16]) [µM] | IC50 (Plasmodium falciparum [17]) [µM] |
| --- | --- | --- | --- | --- | --- | --- | --- | --- | --- | --- | --- | --- | --- | --- | --- | --- | --- | --- | --- | --- |
| Nc1nc2c(ncn2[C@H]2CCN(C(=O)CP(=O)(O)O)C2)c(=O)[nH]1 | 2.6 | 182 | 28 | 0.4 | 73 |  |  |  |  |  |  |  |  |  |  |  |  |  |  |  |
| O=c1[nH]cnc2c1ncn2CCN(CCOCCP(=O)(O)O)CCP(=O)(O)O | 0.04 |  |  | 0.2 |  |  |  |  |  |  |  |  |  |  |  |  |  |  |  |  |
| Nc1nc2c(ncn2CCN(CCOCCP(=O)(O)O)CCP(=O)(O)O)c(=O)[nH]1 | 0.03 | 0.45 | 2.725 | 0.19 |  |  |  |  |  |  |  |  |  |  |  |  |  |  |  |  |
| Nc1nc2c(ncn2CC2CCCN(CP(=O)([O-])[O-])C2)c(=O)[nH]1.[Na+].[Na+] (stereo not given) | 29 | 3.5 | 0.24 | 2 | 7 |  |  |  |  |  |  |  |  |  |  |  |  |  |  |  |
| Nc1nc2c(ncn2CC2CN(CCP(=O)([O-])[O-])CCN2CCP(=O)([O-])[O-])c(=O)[nH]1.[Na+].[Na+].[Na+].[Na+] (stereo not given) | 6 | 0.075 | 0.025 | 2 | 0.15 |  |  |  |  |  |  |  |  |  |  |  |  |  |  |  |
| O=c1[nH]cnc2c1ncn2CC1CN(CCP(=O)([O-])[O-])CCN1CCP(=O)([O-])[O-].[Na+].[Na+].[Na+].[Na+] (stereo not given) | 37 | 0.14 | 0.012 | 3 | 0.43 |  |  |  |  |  |  |  |  |  |  |  |  |  |  |  |
| CCOC(=O)[C@H](Cc1ccccc1)NP(=O)(CCN1CCC[C@H]1Cn1cnc2c(=O)[nH]cnc21)N[C@@H](Cc1ccccc1)C(=O)OCC |  |  |  |  |  | Non-Toxic | 4.1 | > 29 | Non-Toxic | 91 | Non-Toxic | Non-Toxic | 117 | > 29 | Non-Toxic | Non-Toxic | Non-Toxic | > 250 | 184 | 6.3 |
| CCOC(=O)[C@H](Cc1ccccc1)NP(=O)(CCN1CCC[C@@H]1Cn1cnc2c(=O)[nH]cnc21)N[C@@H](Cc1ccccc1)C(=O)OCC |  |  |  |  |  | Non-Toxic | 7.1 |  | Non-Toxic | 98 | Non-Toxic | Non-Toxic | 106 |  | Non-Toxic | Non-Toxic | Non-Toxic |  |  | 9.1 |
| O=c1[nH]cnc2c1ncn2C[C@@H]1CCCN1CCP(=O)([O-])[O-].[Na+].[Na+] | > 50 | > 1.1 |  | 44 | > 50 |  |  |  |  |  |  |  |  |  |  |  |  |  |  |  |
| Nc1nc2c(ncn2C[C@@H]2CCCN2CCP(=O)([O-])[O-])c(=O)[nH]1.[Na+].[Na+] | 20 | 1.8 | 0.45 | 5 | 9 |  |  |  |  |  |  |  |  |  |  |  |  |  |  |  |
| Nc1nc2c(ncn2C[C@H]2CCCN2CCP(=O)([O-])[O-])c(=O)[nH]1.[Na+].[Na+] | 39 | > 1.7 | > 1.3 | 30 | > 50 |  |  |  |  |  |  |  |  |  |  |  |  |  |  |  |
| CCOC(=O)[C@H](Cc1ccccc1)NP(=O)(CN1CCCC(Cn2cnc3c(=O)[nH]cnc32)C1)N[C@@H](Cc1ccccc1)C(=O)OCC (stereo not given in full) |  |  |  |  |  | Non-Toxic | 7.9 |  | Non-Toxic | 105 | Non-Toxic | Non-Toxic | 107 |  | Non-Toxic | Non-Toxic | Non-Toxic |  |  | 11.7 |
| CCOC(=O)[C@H](Cc1ccccc1)NP(=O)(CN1CCCC(Cn2cnc3c(=O)[nH]c(N)nc32)C1)N[C@@H](Cc1ccccc1)C(=O)OCC (stereo not given in full) |  |  |  |  |  | Non-Toxic | 11.7 |  | Non-Toxic | 103 | Non-Toxic | Non-Toxic | 103 |  | Non-Toxic | Non-Toxic | Non-Toxic |  |  | 3.9 |
| O=c1[nH]cnc2c1ncn2C[C@H]1CCCN1CCP(=O)([O-])[O-].[Na+].[Na+] | > 50 | > 3.3 |  | 15 | > 50 |  |  |  |  |  |  |  |  |  |  |  |  |  |  |  |
| CCOC(=O)[C@H](Cc1ccccc1)NP(=O)(CCN1CCN(CP(=O)(N[C@@H](Cc2ccccc2)C(=O)OCC)N[C@@H](Cc2ccccc2)C(=O)OCC)CC1Cn1cnc2c(=O)[nH]cnc21)N[C@@H](Cc1ccccc1)C(=O)OCC (stereo not given in full) |  |  |  |  |  | Non-Toxic | 5.1 |  | Non-Toxic | 82 | Non-Toxic | Non-Toxic | 3 |  | Non-Toxic | Non-Toxic | Non-Toxic |  |  | 2.7 |
| CCOC(=O)[C@H](Cc1ccccc1)NP(=O)(CCN1CCN(CP(=O)(N[C@@H](Cc2ccccc2)C(=O)OCC)N[C@@H](Cc2ccccc2)C(=O)OCC)CC1Cn1cnc2c(=O)[nH]c(N)nc21)N[C@@H](Cc1ccccc1)C(=O)OCC (stereo not given in full) |  |  |  |  |  | Non-Toxic | 55.4 |  | Non-Toxic | 104 | Non-Toxic | Non-Toxic | 14 |  | Non-Toxic | Non-Toxic | Non-Toxic |  |  | 32.4 |
| O=c1[nH]cnc2c1ncn2CC1CCCN(CP(=O)([O-])[O-])C1.[Na+].[Na+] (stereo not given) | 72 | > 2.9 | > 0.7 | 17 | > 50 |  |  |  |  |  |  |  |  |  |  |  |  |  |  |  |
| CCOC(=O)[C@H](Cc1ccccc1)NP(=O)(CCN1CCC[C@H]1Cn1cnc2c(=O)[nH]c(N)nc21)N[C@@H](Cc1ccccc1)C(=O)OCC |  |  |  |  |  | Non-Toxic | 7.2 | > 35 | Non-Toxic | 98 | Non-Toxic | Non-Toxic | 97 | > 35 | Non-Toxic | Non-Toxic | Non-Toxic | > 250 | 306 | 2.5 |
| O=c1[nH]cnc2c(C3=NCCN3CCCP(=O)(O)O)c[nH]c12 | 6 | > 16 | > 12 | 4.7 | > 74 |  |  |  |  |  |  |  |  |  |  |  |  |  |  |  |
| CCOC(=O)[C@H](Cc1ccccc1)NP(=O)(CCN1CCC[C@@H]1Cn1cnc2c(=O)[nH]c(N)nc21)N[C@@H](Cc1ccccc1)C(=O)OCC |  |  |  |  |  | Non-Toxic | 12.1 |  | Non-Toxic | 98 | Non-Toxic | Non-Toxic | 103 |  | Non-Toxic | Non-Toxic | Non-Toxic |  |  | 8 |
